Results on six molecules are retold here after patent US5667764A, “Compounds, compositions and methods for binding bio-affecting substances to surface membranes of bio-particles” (Zynaxis, Inc., priority 1992, dated 1997).

The test system of one series is membrane ghosts. Kind of series: Membrane binding stability (MBS) assay in membrane ghosts with 5% albumin. The conditions noted are these: 24 hours; for MBS (% of max.): Table II; for MBS: Table III. From the text:
Determination of Membrane Binding Stability
For example, very stable binding to membranes might be required for applications such as delivery of therapeutic radionuclides to tumor sites, as loss of compound could lead to the radionuclide producing its toxic effect at non-tumor sites. On the other hand, more rapid loss of compound from biomembranes may be desirable for application involving controlled delivery rates of therapeutic agents. Accordingly, there is described hereinbelow an assay for determining MBS under conditions approximating those found in vivo.
In carrying out this assay, approximately physiological concentrations of serum albumin (5%) are used. […] To better approximate the effects of large fluid volumes to which labelled cells are exposed in vivo, the assay for MBS is carried out by suspending a decreasing number of labeled membrane ghosts in a fixed volume of albumin-containing saline. At 24 hours, the total amount of label present is determined by sampling the well mixed suspension; subsequently, the membrane ghosts are pelleted by centrifugation and the amount of label released into the supernatant is determined and expressed as a percent of total label. Percent retention is plotted against number of ghosts per ml. of suspension, and MBS is determined as the area under the curve between 5×10^7 ghosts/ml. and 4×10^8 ghosts/ml.

A short description of series [1]: In vivo loss of dye from labeled, reinjected erythrocytes. The conditions noted are these: rabbit, iv.
Text: (§2) *Half life for loss of dye from rabbit erythrocytes after labeling and
The test system of series [2] is red blood cell ghosts (plasma membrane). Kind of series: Membrane retention coefficient (MRC) in red blood cell ghosts. Type of series: binding. Conditions: 24 hr; Table II. The protocol: Determination of Membrane Retention Coefficient
The membrane retention coefficient (MRC) provides information regarding how well a given compound is retained in the plasma membrane of a cell and is determined as described below.
Generation of red blood cell ghosts for use as a model membrane is achieved by centrifuging whole blood at 300×g for 15 minutes, removal of the plasma and resuspension of the cell pellet in 0.83% (w/v) ammonium chloride. The ghosts are pelleted from the ammonium chloride by centrifuging at 10,000×g for 10 minutes. This ammonium chloride washing procedure is repeated a minimum of five times to insure that complete release of hemoglobin from the cells has occured. The ghosts are labeled with the compound in question at a concentration allowing for detection of the labeled ghosts by instrumental analysis or fluorescent microscopic methods, and at a concentration similar to those that would be used to label cells for a specific application as described above. For the determinations hereinbelow stock solutions of the compounds in question were prepared in ethanol at a molar concentration of 2×10^-3, and working dilutions of the compounds were prepared in iso-osmotic sucrose (52 g/500 ml distilled water). After incubation of the ghosts at an approximate concentration of 1×10^9 ghosts/ml in the working dilutions of the compounds for 10 minutes, the samples were centrifuged at 10,000×g to pellet the ghosts and the staining solution was aspirated from the samples. The labeled ghosts were resuspended in 1 ml of phosphate buffered saline solution containing 10% fetal bovine serum (PBS-FBS). Triplicate 20 ul aliquots were removed from each sample for the determination of the amount of total compound present. The samples were centrifuged as described above and triplicate 20 ul aliquots were removed from the supernatant for quantitative determination of amount of unbound compound present.
After sampling, the supernatant was aspirated and the red cell ghost pellet was resuspended in 1.0 ml of the PBS-FBS, which was once again sampled as described above. This procedure was repeated at least six times, allowing for detection of rapidly released compounds and was monitored after times equal to or greater than 24 hours to allow for the detection of more slowly released compounds. For the determination of the amount of compound present in each sample, the 20 ul aliquots were extracted into 3.0 ml of n-butanol by shaking. The samples were centrifuged at 3000×g to remove membrane debris and the butanol fractions were assayed for compound concentration. Fluorescent compounds are assayed in this manner using peak excitation and emission wave lengths for the particular compounds being assayed to determine the fluorescence units for each sample.
The determination of the amount of compound present in each sample as described above allows for the calculation of the MRC for each washing or fixed time point. The value is obtained by the following formula: […]
wherein CT represents the amount of compound present (in units determined by the method used to assay the compound) in the total sample and CS represents the amount of compound present in the supernatant sample for that particular time point. The comparison of the MRC values defines criteria for identification of the compounds of this invention, these criteria being: 1) the MRC values determined for each washing steps should have a value of at least about 90 and 2) the percent difference between MRC values over at least a 24 hour time period should be less than about 10%. [drawing 14]
The data provided in Table I below are the results from one experiment and serve as an example of the MRC determination. […]

The test system of the next series is rabbit erythrocytes. The conditions noted are these: iv.
Series [3] can be described thus: Colchicine plasma concentration in rabbits (estimated). The conditions noted are these: rabbit 0.2 mg/kg/day vs human 1 mg/day. It counts as in vivo. The protocol:
(§1) Bochner et al., Handbook of Clinical Pharmacology, Little, Brown and Co., Boston (1983), pp. 151-152. […] Thus, the concentration of colchicine in rabbits shown to prevent restenosis was 14 times the concentration achieved in the clinical trial. The compounds of invention can be prepared in the above-described compatible binding media up to 100 μM, i.e., 1400 times the concentration shown to be effective in the animal study, and delivered directly to the arterial wall by catheter during an angioplasty procedure.

For the next series, the system named is A10 cells. Kind of series: Antiproliferative activity on A10 cells after one 10 minute application. It counts as cell-based, rat. Conditions: for Cell count: 10 minute application; for activity at 10 µM: Rattus norvegicus, read-out: % of Vehicle Maximum. The protocol: To determine the antiproliferative action of the compounds of invention, in vitro studies were performed using A10 cells, a clonal cell line originally derived from the thoracic aorta of embryonic rats, that proliferate as myoblasts and develop into cells which phenotypically resemble smooth muscle cells (B. Kimes and B. Brandt, Exptl. Cell Res. 98:349 (1976). Typically, twelve-well plates were seeded with 2500-10,000 A10 cells/cm^2 in Dulbecco's Modified Eagles Medium (DMEM) with 10% fetal calf serum (FCS) and allowed to adhere and stabilize for 24 hours at 37° C. Test substances were then prepared in the required concentrations in appropriate cell binding media and, after aspirating the plating medium, applied to the individual wells at 37° C. for a period of only 10 minutes. The treatments were then aspirated, the wells washed 4 times with non-treatment containing medium and then placed in non-treatment containing DMEM with 10% FCS for the duration of the study. At various times after treatment application, triplicate wells were aspirated, the aspirate saved, and the wells treated with 0.25 ml of 0.25% trypsin to release the adherent cells. The enzymatic action of trypsin on the cells was stopped by addition of excess protein (1.75 ml DMEM+10% FCS), the aspirate returned to the wells, and an aliquot of the resultant cell suspension counted in a Coulter Counter (Model ZM with Sampling Stand II). Cell count was normalized to cells per square centimeter of growing area (surface area of well bottom).

The conditions of series [4]: 1 mg/day human; cited from earlier work.
Series [5] can be described thus: Colchicine blood/plasma level in humans. Type of series: in vivo. Conditions: 1 mg/day human; read-out: Peak plasma concentration. The method, then:
as §1

Another series concerns restenosis. Conditions: patients; limiting toxicity; cited from earlier work.

Like-named read-outs stand apart in the source and are kept apart here.

Text for rabbit erythrocytes: as §2

As for `CCCCCCCCCCCCCCCCN1C(=CC=CC2=[N+](CCCCCCCCCCCCCCCC)c3ccccc3C2(C)C)C(C)(C)c2ccccc21` [S], the “MBS (% of max.)” value in the series with membrane ghosts is 79 ± 3.7 % of max. Besides, the half-life in series [1] was 58 days. For the same molecule, in [2], the “MRC# (at 24 hr.)” value is 87 ± 1.2.

With `CCCCCCCCCCCC[N+]1=C(C=CC=C2N(CCCCCCCCCC)c3ccccc3C2(C)C)C(C)(C)c2ccccc21` [Compound 0], the “MBS (% of max.)” value in the series with membrane ghosts is listed as 19 ± 3.5 % of max. Besides, the “In vivo membrane half-life” value in the series on rabbit erythrocytes is recorded as below 1 days. Moreover, in series [2], the “MRC# (at 24 hr.)” value was 30 ± 4.7.

As for `CCCCCCCCCCCCCCN1C(=CC=CC2=[N+](CCCCCCCCCCCCCC)c3ccccc3C2(C)C)C(C)(C)c2ccccc21` [R], in the series on membrane ghosts, the “MBS (% of max.)” value is 55 ± 1.7 % of max and the MBS stood at 55 ± 1.6%. For the same molecule, in series [1], the half-life was 36 days. For the same molecule, the “MRC# (at 24 hr.)” value in series [2] came to 87 ± 0.6.

`CCCCCCCCCCCCCC[N+]1=C(C=CC=C2N(CCC)c3ccccc3C2(C)C)C(C)(C)c2ccccc21` [Q]: in the series with membrane ghosts, the “MBS (% of max.)” value was 41 ± 5.0 % of max and the MBS is reported as 42 ± 5.7%. Further, the “In vivo membrane half-life” value with rabbit erythrocytes is on record as 10 ± 0.7 days. Moreover, in series [2], the “MRC# (at 24 hr.)” value was determined as 85 ± 0.6.

For the molecule `CCCCCCCCCCCCCCCCCCCCCC[N+]1=C(C=CC=C2N(CCCCCCCCCCCC)c3ccccc3C2(C)C)C(C)(C)c2ccccc21` [P], in the series with membrane ghosts, the “MBS (% of max.)” value is 48 ± 3.1 % of max. For the same molecule, the “In vivo membrane half-life” value in the series on rabbit erythrocytes is recorded as 1.4 days. Moreover, the “MRC# (at 24 hr.)” value in series [2] worked out at 65 ± 2.0.

As for `COc1cc2c(c(OC)c1OC)-c1ccc(OC)c(=O)cc1[C@@H](NC(C)=O)CC2` [Colchicine, colchicine], in series [3], the “Colchicine concentration in rabbits vs clinical trial” value is listed as 14 times. Also, the Cell count in the series on A10 cells (10 μM, day 0) was 3006.53 cells per square centimeter; in the series on A10 cells (10 μM, day 1), 3778.07 cells per square centimeter; in the series with A10 cells (10 μM, day 2), 4249.35 cells per square centimeter; in the series with A10 cells (10 μM, day 3), 7785.90 cells per square centimeter; in the series with A10 cells (10 μM, day 6), 57626.63 cells per square centimeter; with A10 cells (10 μM, day 7) it was 118127.94 cells per square centimeter. Moreover, the “% of Vehicle Maximum” value in the series on A10 cells (10 μM, day 0, 0 min) is on record as 1.44%. Also, the activity at 10 µM was 1.81% in the series with A10 cells (A10, 24 h, 10 μM, day 1); 2.04% in the series with A10 cells (A10, 48 h, 10 μM, day 2); 3.73% with A10 cells (A10, 72 h, 10 μM, day 3); 27.6% with A10 cells (A10, 144 h, 10 μM, day 6); 56.6% with A10 cells (A10, 168 h, 10 μM, day 7). In the series on A10 cells (day 7), the “Cell density relative to vehicle-treated cells” value is reported as “only one-half the cell density of vehicle-treated cells”. The “Increase in cell number over that with the colchicine conjugate” value with A10 cells (day 7) is given as “approximately 10 fold”. Further, the Peak plasma concentration in series [4] was 2 ng/mL. In addition, the Cmax in [5] was found to be 5 nM. Also, the Maximum tolerated dose with restenosis was at most 1 mg/day.

A word on the half-life: it is how long it takes for the measured level to halve. A lower half-life goes with rapid decline.
